From patent US11090292B2, “Compositions and methods of use of an inappetance-controlling compound” (Aratana Therapeutics, Inc., priority 2012, dated 2021)

How the values were obtained:
[1] = Example 4 seven-day study once vs twice daily 3 mg/kg: food consumption and body weight; assay type: in vivo, Beagle dogs
Procedure: (§1) A controlled, seven-day study was performed to assess the impact of different capromorelin-dosing regimens on the production of IGF-1, GH, and cortisol. The different capromorelin-dosing regimens were also assessed for the impact on food intake and changes in body mass.
(§2) […] were divided into one of three treatment groups, with one negative control group and two active treatment groups. Each of the three treatment groups included three males and three females. The first group received a placebo formulation (i.e., deionized water) twice per day, via oral gavage. The second group received a once-daily dose of the capromorelin composition at a concentration of 3 mg/kg, via oral gavage. The third group received a twice-daily dose of the capromorelin composition at a concentration of 3 mg/kg, via oral gavage.
(§3) During the ten day study period, on an at least once-daily basis, each of the dogs was monitored for clinical observations, mortality, moribundity, body mass, acceptability/palatability, and food consumption. Serum samples were taken to measure capromorelin concentration, GH concentration, IGF-1 concentration, and cortisol concentration. Serum samples were taken on days 1, 2, 4, and 7 at −15 minutes (pre-dose), immediately prior to dosing (0 minutes) and 30, 45, 60, 90, 120, 240, 360, and/or 480 minutes post dosing. […]

cortisol = test: Example 1: serum cortisol concentration; assay type: in vivo, Beagle dogs; conditions: approximately 0.5 h post treatment, days 1, 2 and 7
Procedure: (§4) A controlled, seven-day study was performed to assess the impact of different capromorelin-dosing regimens on the production of insulin-like growth factor 1 (hereinafter “IGF-1”), growth hormone (hereinafter “GH”), and cortisol. The different capromorelin-dosing regimens were also assessed for the impact on food intake and changes in body mass.
(§5) Eighteen adult non-naïve Beagle dogs (nine males and nine females) were divided into one of three treatment groups. Each of the three treatment groups included three males and three females. Group A, which was the control group, was dosed twice per day, via oral gavage, with a vehicle (deionized water alone) and was used as a baseline data point for comparison against the active treatment regimens. Group B comprised an active treatment group that received two treatments per day, via oral gavage, with a capromorelin-containing composition with a concentration of 3 mg/kg capromorelin per treatment. Finally, Group C comprised an active treatment group that received one treatment per day, via oral gavage, with a capromorelin-containing composition with a concentration of 6 mg/kg capromorelin per treatment.
During the ten day study period, on an at least once-daily basis, each of the dogs was monitored for clinical observations, mortality, morbidity, body mass, and food consumption. […]

[2] = Example 4: capromorelin concentration in serum; assay type: in vivo; conditions: Days 1 and 7, 3 mg/kg once or twice daily
Procedure: as §1, §2, §3

IGF-1 = test: Example 13: serum IGF-1; assay type: in vivo, cats with compromised kidney function; conditions: 8 hours post administration; Group 1 IV Day 0, Group 2 SC Days 0 and 13
Procedure: (§6) The following study was undertaken to assess multiple points. First, the following experiments were conducted to determine if a formulation of capromorelin, when administered either intravenously or subcutaneously, can stimulate appetite in cats with compromised kidney function. Second, the following experiments were conducted to assess the pharmacokinetic profile of capromorelin in the serum of cats with compromised kidney function. Finally, the following experiments were conducted to determine if capromorelin accumulates in the serum after 14 days of treatment that is subcutaneously administered.
(§7) Sixteen cats with compromised kidney function were acclimatized for the following study. Animals assigned to Group 1 (n=6) received an intravenous administration of a capromorelin formulation (i.e., capromorelin in sterile water) at a dose of 0.75 mg/kg on Day 0 of the experiment. Animals assigned to Group 2 (n=6) received a subcutaneous administration of a capromorelin formulation (2.1% w/v capromorelin, 1% w/v benzyl alcohol, and citrate buffer) daily for 14 days at a dose of 2 mg/kg. Animals assigned to Group 3 (n=4) served as untreated controls. […] Diet consumption was also monitored on study days −7 until day 13 for the animals in Groups 2 and 3 only.

[3] = Example 13 cat compromised kidney study: body weight and diet consumption; assay type: in vivo, cats with compromised kidney function; conditions: subcutaneous 2 mg/kg daily for 14 days
Procedure: as §6, §7

[4] = Example 1 seven-day dosing regimen study: food consumption and body weight; assay type: in vivo, Beagle dogs
Procedure: as §4, §5
During the ten day study period, on an at least once-daily basis, each of the dogs was monitored for clinical observations, mortality, morbidity, body mass, and food consumption. Serum samples were taken to measure capromorelin concentration, GH concentration, IGF-1 concentration, and cortisol concentration. Serum samples were taken on days 1, 2, 4, and 7 at −15 minutes (pre-dose), immediately prior to dosing (0 minutes) and 30, 45, 60, 90, 120, 240, 360, and/or 480 minutes post dosing. Additional blood samples were taken at 8 AM on Day 10 of the study to assess long-term impact of the active treatments.

[5] = oral gavage, once-daily 6 mg/kg or twice-daily 3 mg/kg, 7 days

Compound: CN1N=C2CCN(C(=O)[C@@H](COCc3ccccc3)NC(=O)C(C)(C)N)C[C@@]2(Cc2ccccc2)C1=O.O=C(O)C(O)C(O)C(=O)O [capromorelin]
- weight loss over the course of the experiment ([1]; once-daily 3 mg/kg oral gavage): did not experience weight loss or did not experience as great a weight loss as the negative control
- average more food consumed daily relative to the negative control ([1]; once-daily and twice-daily 3 mg/kg oral gavage, 7 days): approximately 34%
- cortisol concentrations in the serum relative to deionized water (cortisol): increased
- serum capromorelin by eight hours after administration [2]: decreased to near undetectable levels
- time after dosing at which serum capromorelin begins rising [2]: approximately 0.5 h
- serum concentration of IGF-1 as a result of treatment (IGF-1): increased in serum concentration of IGF-1
- amount of food consumed, Group 2 versus untreated Group 3 [3]: no significant difference
- body weights of Group 2 versus untreated Group 3 [3]: no significant differences
- increase in weight over the seven day treatment period ([4]; male dogs, once-daily 6 mg/kg or twice-daily 3 mg/kg oral gavage): 4-5%
- food consumed relative to dogs receiving deionized water only [4, 5]: consumed more food
- weight gain relative to dogs receiving deionized water only [4, 5]: gained more weight
